Several values for one entry are separate records, joined by “and”; a condition that tells them apart may be missing. Equal entries are not always repeated.

Usually IC50 stands for the concentration needed to halve the response being measured. Read a high IC50 as weaker potency.

Test [1] deals with MCF-7 (ER-positive breast adenocarcinoma) cells. Details: method as in PMID 36903304. The following applies: previous study ref 48; cited from earlier work.
In test [2] the test system is Neuro-2a (mouse neuroblastoma) cells. As to the kind of experiment: MTT assay on Neuro-2a reference cells. The class given is cell-based. The following applies: N2a, 72 h. The procedure:
(§1) The antiproliferative activity of the novel indolyl-methylidene-substituted phenylsulfonylhydrazones (3a–j) and the bis-indole hydrazine derivative (4) was evaluated against two breast cancer cell lines: MCF-7 and MDA-MB-231. The MCF-7 cell line, derived from human breast adenocarcinoma, expresses estrogen receptor alpha (ER-α). In contrast, the MDA-MB-231 cell line represents triple-negative breast cancer (TNBC) and lacks expression of estrogen, progesterone, and HER2 receptors. Antiproliferative activity was expressed as IC50, the concentration (in μM) required to inhibit 50% of cell growth, and ligand efficiency (LE), calculated as LE = −log(IC50)/number of heavy atoms. To assess the selectivity index (SI = IC50 on Neuro-2a/IC50 on breast cancer cell line), the compounds were also tested on Neuro-2a cells, a mouse neuroblastoma cell line derived from brain tissue.
(§2) The in vitro antineoplastic activity of the synthesized compounds was tested against human breast cancer cell lines, comprising the triple-negative MDA-MB-231 and the […] MCF-7. Neuroblastoma mouse cells Neuro-2a were used as a non-breast cancer cell line reference. All cell lines were obtained from the German Collection of Microorganisms and Cell Cultures (DSMZ, Braunschweig, Germany) and cultivated and maintained in accordance with the supplier’s protocols. The cells were cultured in RPMI 1640 growth medium (Gibco, Thermo Fisher Scientific, Waltham, MA, USA), supplemented with 10% fetal bovine serum (FBS; Gibco, Thermo Fisher Scientific, Waltham, MA, USA) and 5% L-glutamine (Gibco, Thermo Fisher Scientific, Waltham, MA, USA), and incubated at standard conditions of 37 °C in a humidified environment with 5% CO2.
(§3) The cytostatic activity of the tested compounds was evaluated using the Mosmann MTT assay—a well-established colorimetric method for assessing cell viability. This assay measures mitochondrial enzyme activity by reducing the yellow dye MTT (3-(4,5-dimethylthiazol-2-yl)-2,5-diphenyltetrazolium bromide) into violet formazan crystals. The exponentially growing cells were harvested and seeded into 96-well plates at a density of 1.5 × 10^5 cells per well in 100 μL of medium and incubated for 24 h. The cell cultures were then treated with various concentrations (200–6.25 μM) of the tested compounds and incubated for 72 h. Cell viability was quantified as a percentage (%) relative to the untreated control, which was set at 100% viability.
(§4) The experimental data were analyzed using nonlinear regression in GraphPad Prism® software, version 9.0. Semi-logarithmic dose–response curves were generated, and the half-maximal inhibitory concentrations (IC50) of the tested compounds were calculated for each tumor cell line.
In general terms: Formazan colour is commonly taken as a measure of viable cells.

Test [3] deals with MDA-MB-231 (triple-negative breast cancer) cells. Briefly: MTT assay, antiproliferative activity on MDA-MB-231 cells. The following applies: for IC50: MTT, 72 h; for SI MDA-MB-231 (selectivity index): SI = IC50 on Neuro-2a/IC50 on MDA-MB-231. Type of test: cell-based, human. On the procedure: as §1, §2, §3, §4
Test [4] relates to MCF-7 (ER-positive breast adenocarcinoma) cells. Briefly: MTT assay, antiproliferative activity on MCF-7 cells. The following applies: for IC50: MTT, 72 h; for SI MCF-7 (selectivity index): SI = IC50 on Neuro-2a/IC50 on MCF-7. Type of test: cell-based, human. On the procedure:
as §1, §2, §3, §4

On to `CC(=O)n1cc(C=NNS(=O)(=O)c2ccc(C)cc2)c2ccccc21` [1d, N′-[(1-acetyl-1H-indol-3-yl)methylidene]-4-methylbenzenesulfonohydrazide], for which the “selectivity index MCF-7, earlier series of arylsulfonylhydrazones” value in test [1] was no more than 46.

For the compound `COc1ccc(S(=O)(=O)N/N=C/c2cn(C(C)=O)c3ccccc23)cc1` [3a, N′-[(E)-(1-Acetyl-1H-indol-3-yl)methylidene]-4-methoxybenzene-1-sulfonohydrazide], the IC50 in test [2] came to 58 ± 8.2 µM; in test [3] (Homo sapiens, MDA-MB-231, 72 h), 20.1 ± 3.4 µM; in test [4] (Homo sapiens, MCF7, 72 h), 4.3 ± 1.3 µM. For the same compound, the “SI MDA-MB-231 (selectivity index)” value in test [3] was 2.886. The “SI MCF-7 (selectivity index)” value in test [4] was 13.5 and 13.488.

Take `CC(=O)n1cc(/C=N/NS(=O)(=O)c2c(C)cc(C)cc2C)c2ccccc21` [3b, N′-[(E)-(1-Acetyl-1H-indol-3-yl)methylidene]-2,4,6-trimethylbenzene-1-sulfonohydrazide]: the IC50 came out at 83.9 ± 9.4 µM in test [2]; 16.3 ± 4.1 µM in test [3] (Homo sapiens, MDA-MB-231, 72 h); 4 ± 0.9 µM in test [4] (Homo sapiens, MCF7, 72 h). For the same compound, the “SI MDA-MB-231 (selectivity index)” value in test [3] amounted to 5.147. Besides, the “SI MCF-7 (selectivity index)” value in test [4] amounted to 20.975.

Turning to `COc1ccc(S(=O)(=O)N/N=C/c2c[nH]c3ccc(Br)cc23)cc1` [3c, N′-[(E)-(5-Bromo-1H-indol-3-yl)methylidene]-4-methoxybenzene-1-sulfonohydrazide], the IC50 in test [2] amounted to 18.6 ± 3.9 µM; in test [3] (Homo sapiens, MDA-MB-231, 72 h), 17.7 ± 2.3 µM; in test [4] (Homo sapiens, MCF7, 72 h), 5.2 ± 1 µM. Also, the “SI MDA-MB-231 (selectivity index)” value in test [3] worked out at 1.051. In addition, the “SI MCF-7 (selectivity index)” value in test [4] worked out at 3.577.

`Cc1cc(C)c(S(=O)(=O)N/N=C/c2c[nH]c3ccc(Br)cc23)c(C)c1` [3d, N′-[(E)-(5-Bromo-1H-indol-3-yl)methylidene]-2,4,6-trimethylbenzene-1-sulfonohydrazide]: the IC50 in test [2] stood at 21 ± 2.1 µM; in test [3] (Homo sapiens, MDA-MB-231, 72 h), 19.9 ± 1.6 µM; in test [4] (Homo sapiens, MCF7, 72 h), 4.2 ± 0.7 µM. Moreover, in test [3], the “SI MDA-MB-231 (selectivity index)” value worked out at 1.055. Moreover, in test [4], the “SI MCF-7 (selectivity index)” value stood at 5.000.

Consider `Cc1ccc(S(=O)(=O)N/N=C/c2c[nH]c3ccc(Br)cc23)cc1` [3e, N′-[(E)-(5-Bromo-1H-indol-3-yl)methylidene]-4-methylbenzene-1-sulfonohydrazide], for which the IC50 in test [2] amounted to 34.8 ± 5.7 µM; in test [3] (Homo sapiens, MDA-MB-231, 72 h), 18.7 ± 2.7 µM; in test [4] (Homo sapiens, MCF7, 72 h), 29.6 ± 5.1 µM. The “SI MDA-MB-231 (selectivity index)” value in test [3] is 1.861. In addition, the “SI MCF-7 (selectivity index)” value in test [4] is reported as 1.176.

In the case of `O=S(=O)(N/N=C/c1c[nH]c2ccc(Br)cc12)c1ccccc1` [3f, N′-[(E)-(5-Bromo-1H-indol-3-yl)methylidene]benzene-1-sulfonohydrazide], the half-inhibitory concentration (IC50) in test [2] was 10.9 ± 1.8 µM; in test [4] (Homo sapiens, MCF7, 72 h) it was less than 6 µM; in test [4], 5.9 ± 1.4 µM. In test [3], the “SI MDA-MB-231 (selectivity index)” value is 2.319. Moreover, the “SI MCF-7 (selectivity index)” value in test [4] stood at 1.847.

With `COc1ccc(S(=O)(=O)N/N=C/c2c[nH]c3ccc(Cl)cc23)cc1` [3g, N′-[(E)-(5-Chloro-1H-indol-3-yl)methylidene]-4-methoxybenzene-1-sulfonohydrazide], the IC50 in test [2] worked out at 26.2 ± 3.5 µM; in test [3] (Homo sapiens, MDA-MB-231, 72 h), 14.7 ± 1.8 µM; in test [4] (Homo sapiens, MCF7, 72 h), 12.7 ± 2.8 µM. The “SI MDA-MB-231 (selectivity index)” value in test [3] turned out to be 1.782. Further, in test [4], the “SI MCF-7 (selectivity index)” value is 2.063.

With `Cc1cc(C)c(S(=O)(=O)N/N=C/c2c[nH]c3ccc(Cl)cc23)c(C)c1` [3h, N′-[(E)-(5-Chloro-1H-indol-3-yl)methylidene]-2,4,6-trimethylbenzene-1-sulfonohydrazide], the concentration for half-maximal inhibition (IC50) in test [2] came out at 24 ± 1.9 µM; in test [3] (Homo sapiens, MDA-MB-231, 72 h) it was 18.1 ± 2.5 µM; in test [4] (Homo sapiens, MCF7, 72 h), 15.2 ± 2.1 µM. For the same compound, the “SI MDA-MB-231 (selectivity index)” value in test [3] worked out at 1.326. Besides, the “SI MCF-7 (selectivity index)” value in test [4] is listed as 1.579.

For `Cc1ccc(S(=O)(=O)N/N=C/c2c[nH]c3ccc(Cl)cc23)c(C)c1` [3i, N′-[(E)-(5-Chloro-1H-indol-3-yl)methylidene]-2,4-dimethylbenzene-1-sulfonohydrazide], the IC50 was 15.9 ± 1.6 µM in test [2]; less than 10 µM in test [3] (Homo sapiens, MDA-MB-231, 72 h); 9.5 ± 1.5 µM in test [3]; 12.4 ± 3.2 µM in test [4] (Homo sapiens, MCF7, 72 h). Moreover, in test [3], the “SI MDA-MB-231 (selectivity index)” value came to 1.674. The “SI MCF-7 (selectivity index)” value in test [4] stood at 1.282.

Consider `Cc1ccc(S(=O)(=O)N/N=C/c2c[nH]c3ccc(Cl)cc23)cc1C` [3j, N′-[(E)-(5-Chloro-1H-indol-3-yl)methylidene]-3,4-dimethylbenzene-1-sulfonohydrazide], for which the IC50 in test [2] is 35.5 ± 5.3 µM; in test [3] (Homo sapiens, MDA-MB-231, 72 h) it was 13.3 ± 2.2 µM; in test [4] (Homo sapiens, MCF7, 72 h) it was 11.5 ± 2.3 µM. Further, the “SI MDA-MB-231 (selectivity index)” value in test [3] came out at 2.669. The “SI MCF-7 (selectivity index)” value in test [4] was determined as 3.087.

In the case of `N.N.[Cl][Pt][Cl]` [Cisplatin, reference compound], the IC50 was determined as 63.4 ± 7.2 µM in test [3] and 50.3 ± 6.5 µM in test [4].

In the case of `Clc1ccc2[nH]cc(/C=N/N=C/c3c[nH]c4ccc(Cl)cc34)c2c1` [compound 4, 3,3′-[(1E,2E)-hydrazine-1,2-diylidenedi(E)methylylidene]bis(5-chloro-1H-indole)], the 50% inhibitory concentration (IC50) in test [2] is 53.7 ± 3.1 µM; in test [3] (Homo sapiens, MDA-MB-231, 72 h), 66 ± 7.4 µM; in test [4] (Homo sapiens, MCF7, 72 h) it was 21.4 ± 4.9 µM. Also, in test [3], the “SI MDA-MB-231 (selectivity index)” value amounted to 0.814. Besides, the “SI MCF-7 (selectivity index)” value in test [4] was 2.509.

With “N′-[(1-acetyl-1H-indol-3-yl)methylidene]benzenesulfonohydrazide [1c]”, in test [1], the “selectivity index MCF-7, earlier series of arylsulfonylhydrazones” value was “up to 40”.

Values taken from article PMC12389196, “Novel Indole-Based Sulfonylhydrazones as Potential Anti-Breast Cancer Agents: Synthesis, In Vitro Evaluation, ADME, and QSAR Studies” (Pharmaceuticals, 2025).
